How the values were obtained:
Arabidopsis Col-0 = test: Etiolated hypocotyl growth assay; type: in vivo, Arabidopsis thaliana; conditions: dark-grown Col-0, dosages examined
Experimental: To test the inhibitory effects of different chemicals on plant growth, wild-type Arabidopsis Col-0 plants were used. The seeds of plants used for growth assays or live cell imaging were sequentially sterilized with 50% bleach and 75% ethanol. After washing with sterilized water, the seeds were sown on ½-strength Murashige and Skoog (MS) medium supplemented with 3 mg/L of various chemicals. The plants were grown under continuous light of 130 μmol m^−2 s^−1 intensity illuminated by a Philips F25T8/TL841 25-watt bulb at 22° C. To quantify the inhibitory effects of different ES20 active analogs on the root growth of Arabidopsis wildtype, EMS mutants, and transgenic plants expressing mutated AtCESA6 in prc1-1 background, sterilized Col-0, mutants, and transgenic plants seeds were sown on gridded Petri plates containing ½-strength MS medium supplemented with different concentrations of ES20 analogs. The plates were placed in vertical orientation in the growth chamber for root measurement. The plates were scanned using an Epson Perfection V550 scanner after 7 days of growth, and the root lengths of plants were quantified using ImageJ software. […] The Petri dishes were scanned, and hypocotyl length was measured using ImageJ. Transgenic plants expressing fluorescence-tagged PIN2, PIP2a, HDEL, VHA-a1, and GOT1p were as reported previously (Xu and Scheres, Plant Cell, 2005, 17, 525-536).

[1] = molecular target: T1, GFP-CESA6c^P595S: GFP-tagged central cytoplasmic domain of AtCESA6 (cellulose synthase, CESA6) carrying missense mutation P595S, with a His-SUMO tag (Arabidopsis thaliana, UniProt Q94JQ6, P595S); test: Microscale thermophoresis (MST) binding to purified GFP-tagged CESA6c^P595S (missense mutant)
T1 construct: We purified AtCESA6 central cytoplasmic domain carrying missense mutation P595S (CESA6c^P595S); His-SUMO; made in house; host or cells: E. coli
Text: FIGS. 3A-3Q. […] FIG. 3A to FIG. 3G. […] FIG. 3A. Representative 5-day-old dark-grown Arabidopsis Col-0 seedlings grown on growth medium supplemented with different concentrations of ES20 or ES20-1. Scale bar: 1 cm. FIG. 3B. Quantification of hypocotyl length of 5-day-old dark-grown Arabidopsis Col-0 seedlings described in FIG. 3A. Data represent mean±SD (n=12 seedlings). FIG. 3C. Quantification of crystalline cellulose content in the hypocotyl cell walls of 7-day-old dark-grown Col-0 seedlings grown on growth medium supplemented with DMSO (0.1%), 1 μM ES20, or 1 μM ES20-1. Data represent mean±SD (n=3 biological replicates). FIG. 3D and FIG. 3E. […] FIG. 3D. Representative image of 6-day-old rice seedlings grown in sterile water supplemented with DMSO (0.1%), 20 μM ES20, or 20 μM ES20-1. Scale bar: 1 cm. FIG. 3E. Quantification of root length of rice seedlings as described in FIG. 3D. Data represent mean±SD (n=10 seedlings). FIG. 3F and FIG. 3G. […] FIG. 3F. […] Quantification of root length of maize seedlings as described in FIG. 3F. […] Quantitative analysis of the band intensity of YFP-AtCESA6 and SEC12 in ES20-1-treated samples divided by that of DMSO-treated samples in the DARTS assay described in FIG. 3H. […] Statistically significant differences in FIG. 3B were determined using one-way ANOVA followed by Tukey's multiple comparisons test. […]

[2] = test system: PIN2-GFP, GFP-PIP2a, GFP-HDEL, VHA-a1-GFP, YFP-Got1p; test: Live-cell imaging of fluorescence-tagged marker proteins; type: cell-based, Arabidopsis thaliana; conditions: 6 μM, 2 h
Experimental: To test the effect of ES20-1 on cellular localization of endomembrane marker proteins, transgenic plants expressing different fluorescence-tagged proteins were grown on ½-strength MS agar plates for 5 d under continuous light. The seedlings were incubated in ½-strength MS liquid media supplemented with 6 μM ES20-1 for 2 h. The images were collected by Zeiss 710 laser scanning confocal microscope equipped with 40×/1.2 NA water objective. For images of GFP-tagged proteins, the 488-nm laser line was used as an excitation source and emission light at 493-598 nm was collected. For images of YFP-tagged proteins, the 514-nm laser line was used as an excitation source and the emission light at 519-621 nm was collected.

Cc1ccccc1C(=O)NNC(=S)NC(=O)c1ccccc1 [ES20-1]
hypocotyl growth inhibition compared with ES20 (Arabidopsis Col-0): inhibited hypocotyl growth more strongly than ES20
Kd [1]: 9.5 ± 6.3 µM
cellular localization of PIN2-GFP [2]: not significantly affected
cellular localization of organelle marker proteins GFP-PIP2a, GFP-HDEL, VHA-a1-GFP, YFP-Got1p [2]: are not affected

Reference: patent US11938121B2, “Treatment of infections and biofilm formation using a cellulose synthase inhibitor” (Purdue Research Foundation, priority 2020, dated 2024)
